Like-named read-outs stand apart in the source and are kept apart here.
Molecular target: T1, GST-FAK (N-terminal GST fusion with truncated human FAK (376-1052 (end) amino acids)) (Homo sapiens, UniProt Q05397)
T1 construct: truncated human FAK (376-1052 (end) amino acids)
Test: Biochemical enzyme assay for FAK activity (Caliper LC3000 mobility shift)
Settings: 100 uM ATP
Procedure: 1. Biochemical Enzyme Assays for FAK Activity
The FAK assays described here are performed on two Caliper Life Sciences systems, the LC3000 and the EZ Reader II. These provide data on enzyme activity via measurement of the relative amounts of phosphorylated or unphosphorylated fluorescently labelled substrate peptide at the end of an enzymatic reaction. These different states of peptide are resolved by applying a potential difference across the sample. The presence of the charged phosphate group on the product (as opposed to the substrate) causes different peptide mobility between the two peptides. This is visualized by excitation of the fluorescent label on the substrate and product peptides and represented as peaks within the analysis software.
In order to measure inhibitor activity of FAK, inhibitors in the Caliper Life Sciences LC3000, a TTP Mosquito liquid handling instrument is used to place 0.25 ul of the appropriate concentration of inhibitor in 100% DMSO (for a dose response curve calculation) into each well of a 384-well plate. To this reaction components are added to a final volume of 25 ul: • 0.067 ng/ul GST-FAK (N-terminal GST fusion with truncated human FAK (376-1052 (end) amino acids)) • 100 uM ATP • 1 mM DTT • 1 mM MgCl2 • 1 uM substrate peptide (sequence FITC-KGWMEDYDYVHLQGKK-(CONH2)SEQ ID NO: 1)) • 1 mM FERM peptide (sequence NH2-GATQSFIIR-COOH (SEQ ID NO: 2)) • 100 mM HEPES pH 7.5 • 0.015% Brij-35
The reaction is incubated for 90 min at 25 C, and then stopped by the addition of 70 ul of Stop buffer (100 mM HEPES pH 7.5, 0.015% Brij-35, 10 mM EDTA).
The plate is read on a Caliper LC 3000 in an Off-Chip mobility shift assay format, using the following parameters for a 12-sipper chip: screening pressure—1.9 psi, upstream voltage—3000, downstream voltage—700. These conditions cause unphosphorylated substrate and phosphorylated product peptide to resolve as separate peaks allowing direct measurement of percentage of conversion of substrate to product. The percent conversion can be plotted against concentration of inhibitor to produce a sigmoid dose response curve, from which an IC50 can be calculated using XLFit for Microsoft Excel.

T1 sequence (Q05397 376-1052): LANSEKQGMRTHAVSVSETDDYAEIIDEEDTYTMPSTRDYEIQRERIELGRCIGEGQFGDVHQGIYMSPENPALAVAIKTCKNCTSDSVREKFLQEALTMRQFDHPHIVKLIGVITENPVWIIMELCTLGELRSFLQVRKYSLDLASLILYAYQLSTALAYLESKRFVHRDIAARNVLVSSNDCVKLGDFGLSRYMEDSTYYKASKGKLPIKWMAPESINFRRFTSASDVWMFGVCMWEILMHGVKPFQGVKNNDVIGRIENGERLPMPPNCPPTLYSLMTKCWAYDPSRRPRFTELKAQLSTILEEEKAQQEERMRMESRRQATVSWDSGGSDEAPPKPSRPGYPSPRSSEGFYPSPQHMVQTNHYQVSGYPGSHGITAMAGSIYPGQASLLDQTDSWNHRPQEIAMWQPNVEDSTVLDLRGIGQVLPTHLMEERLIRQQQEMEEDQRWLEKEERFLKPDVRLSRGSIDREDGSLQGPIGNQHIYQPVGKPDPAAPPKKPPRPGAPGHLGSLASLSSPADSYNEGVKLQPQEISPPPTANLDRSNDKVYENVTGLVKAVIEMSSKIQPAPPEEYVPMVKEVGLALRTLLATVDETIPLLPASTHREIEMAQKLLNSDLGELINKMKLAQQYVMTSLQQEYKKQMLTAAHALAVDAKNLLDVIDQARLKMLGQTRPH

Row | SMILES | IC50 (Table 3, read-out: FAK IC50) [µM] | also measured
1 | Fc1ccccc1CNc1ccnc(-c2cccnc2)n1 [Compound 93, N-(2-Fluorobenzyl)-2-pyridin-3-ylpyrimidin-4-amine] | 0.1 to 1 | –
2 | Nc1ccc(-c2nccc(NCc3ccccc3C(F)(F)F)n2)cn1 [Compound 94, 2-(6-Aminopyridin-3-yl)-N-[2-(trifluoromethyl)benzyl]pyrimidin-4-amine] | 1 to 10 | –
3 | Cc1cccc(CNc2ccnc(-c3cccnc3N)n2)c1 [Compound 95, 2-(2-Aminopyridin-3-yl)-N-(3-methylbenzyl)pyrimidin-4-amine] | > 10 | –
4 | Nc1ncccc1-c1nccc(NCc2ccc(C(F)(F)F)cc2)n1 [Compound 96, 2-(2-Aminopyridin-3-yl)-N-[4-(trifluoromethyl)benzyl]pyrimidin-4-amine] | > 10 | –
5 | COc1ccc(CNc2ccnc(-c3cccnc3N)n2)cc1 [Compound 97, 2-(2-Aminopyridin-3-yl)-N-(4-methoxybenzyl)pyrimidin-4-amine] | > 10 | –
6 | CS(=O)(=O)c1ccc(CNc2ccnc(-c3cccnc3N)n2)cc1 [Compound 99, 2-(2-Aminopyridin-3-yl)-N-[4-(methylsulfonyl)benzyl]pyrimidin-4-amine] | > 10 | –
7 | Nc1ncccc1-c1nccc(NCc2ncccc2C(F)(F)F)n1 [Compound 100, 2-(2-Aminopyridin-3-yl)-N-{[3-(trifluoromethyl)pyridin-2-yl]methyl}pyrimidin-4-amine] | 1 to 10 | –
8 | Cc1ccc(CNc2ccnc(-c3cccnc3N)n2)c(F)c1 [Compound 101, 2-(2-Aminopyridin-3-yl)-N-(2-fluoro-4-methylbenzyl)pyrimidin-4-amine] | 1 to 10 | –
9 | Nc1ncccc1-c1nccc(NCc2cc(F)ccc2C(F)(F)F)n1 [Compound 102, 2-(2-Aminopyridin-3-yl)-N-[5-fluoro-2-(trifluoromethyl)benzyl]pyrimidin-4-amine] | 1 to 10 | –
10 | Nc1ncccc1-c1nccc(NCc2cnccc2C(F)(F)F)n1 [Compound 103, 2-(2-Aminopyridin-3-yl)-N-{[4-(trifluoromethyl)pyridin-3-yl]methyl}pyrimidin-4-amine] | 1 to 10 | –
11 | Nc1ncccc1-c1cccc(NCc2ccccc2C(F)(F)F)c1 [Compound 104, 3-(3-{[2-(Trifluoromethyl)benzyl]amino}phenyl)pyridin-2-amine] | > 10 | –
12 | Nc1ncccc1-c1cccc(NCc2ccccc2F)c1 [Compound 105, 3-{3-[(2-Fluorobenzyl)amino]phenyl}pyridin-2-amine] | > 10 | –
13 | Nc1ncccc1-c1cc(NCc2ccccc2F)ccn1 [Compound 106, N4-(2-Fluorobenzyl)-2,3′-bipyridine-2′,4-diamine] | > 10 | –
14 | Nc1ncccc1-c1nccc(NCc2ccc(Cl)cc2C(F)(F)F)n1 [Compound 109, 2-(2-Aminopyridin-3-yl)-N-[4-chloro-2-(trifluoromethyl)benzyl]pyrimidin-4-amine] | 0.1 to 1 | –
15 | Nc1ncccc1-c1nccc(NCc2c(F)cccc2C(F)(F)F)n1 [Compound 111, 2-(2-Aminopyridin-3-yl)-N-[2-fluoro-6-(trifluoromethyl)benzyl]pyrimidin-4-amine] | 1 to 10 | –
16 | Nc1ncccc1-c1cc(NCc2ccccc2C(F)(F)F)ccn1 [Compound 113, N4-[2-(trifluoromethyl)benzyl]-2,3′-bipyridine-2′,4-diamine] | 1 to 10 | –
17 | Nc1ncccc1-c1nccc(NC2CCOc3ccccc32)n1 (stereo not shown) [Compound 116, 2-(2-Aminopyridin-3-yl)-N-(3,4-dihydro-2H-chromen-4-yl)pyrimidin-4-amine] | > 10 | –
18 | Nc1ncccc1-c1nccc(NCc2cccc3nsnc23)n1 [Compound 117, 2-(2-Aminopyridin-3-yl)-N-(2,1,3-benzothiadiazol-4-ylmethyl)pyrimidin-4-amine] | 0.1 to 1 | –
19 | Nc1ncccc1-c1nccc(N2Cc3ccccc3C2=O)n1 [Compound 120, 2-[2-(2-Aminopyridin-3-yl)pyrimidin-4-yl]isoindolin-1-one] | > 10 | –
20 | Nc1ncccc1-c1nccc(NCc2cccnc2)n1 [Compound 121, 2-(2-Aminopyridin-3-yl)-N-(pyridin-3-ylmethyl)pyrimidin-4-amine] | > 10 | –

Row | SMILES | IC50 (Table 3, read-out: FAK IC50) [µM] | also measured
21 | Nc1ncccc1-c1nccc(NCc2cccc3c2OCO3)n1 [Compound 122, 2-(2-Aminopyridin-3-yl)-N-(1,3-benzodioxol-4-ylmethyl)pyrimidin-4-amine] | 0.1 to 1 | –
22 | Nc1ncccc1-c1nccc(NCc2ccncc2)n1 [Compound 128, 2-(2-Aminopyridin-3-yl)-N-(pyridin-4-ylmethyl)pyrimidin-4-amine] | > 10 | –
23 | FC(F)(F)c1cncc(-c2nccc(NCc3cccc4nsnc34)n2)c1 [Compound 133, N-(2,1,3-Benzothiadiazol-4-ylmethyl)-2-[5-(trifluoromethyl)pyridin-3-yl]pyrimidin-4-amine] | < 0.1 | –
24 | Nc1ncccc1-c1nccc(NCc2cccc3ccnn23)n1 [Compound 135, 2-(2-Aminopyridin-3-yl)-N-(pyrazolo[1,5-a]pyridin-7-ylmethyl)pyrimidin-4-amine] | > 10 | –
25 | Nc1ncc(C(F)(F)F)cc1-c1nccc(NCc2ccccc2C(F)(F)F)n1 [Compound 136, 2-[2-Amino-5-(trifluoromethyl)pyridin-3-yl]-N-[2-(trifluoromethyl)benzyl]pyrimidin-4-amine] | < 0.1 | –
26 | Nc1ncccc1-c1nccc(NCc2cccnc2C(F)(F)F)n1 [Compound 137, 2-(2-Aminopyridin-3-yl)-N-{[2-(trifluoromethyl)pyridin-3-yl]methyl}pyrimidin-4-amine] | 1 to 10 | –
27 | C[C@H](Nc1ccnc(-c2cccnc2N)n1)c1ccccc1C(F)(F)F [Compound 138, 2-(2-Aminopyridin-3-yl)-N-{(1S)-1-[2-(trifluoromethyl)phenyl]ethyl}pyrimidin-4-amine] | 1 to 10 | –
28 | c1ccc(CNc2ccnc(-c3cccnc3)n2)cc1 [Compound 139, N-Benzyl-2-pyridin-3-ylpyrimidin-4-amine] | > 10 | –
29 | Cc1cc(NCc2cccc(C(F)(F)F)c2)nc(-c2cccnc2)n1 [Compound 140, 6-Methyl-2-pyridin-3-yl-N-[3-(trifluoromethyl)benzyl]pyrimidin-4-amine] | > 10 | –
30 | Cc1cc(NCc2ccccc2)nc(-c2cccnc2)n1 [Compound 141, N-Benzyl-6-methyl-2-pyridin-3-ylpyrimidin-4-amine] | > 10 | –
31 | Cc1cc(NCc2cccc(F)c2)nc(-c2cccnc2)n1 [Compound 142, N-(3-Fluorobenzyl)-6-methyl-2-pyridin-3-ylpyrimidin-4-amine] | > 10 | –
32 | CNCC(Nc1ccnc(-c2cccnc2)n1)c1ccccc1 (stereo not shown) [Compound 143, N2-Methyl-1-phenyl-N1-(2-pyridin-3-ylpyrimidin-4-yl)ethane-1,2-diamine] | > 10 | –
33 | CNCC(Nc1ccnc(-c2cccnc2N)n1)c1ccccc1 (stereo not shown) [Compound 144, N1-[2-(2-Aminopyridin-3-yl)pyrimidin-4-yl]-N2-methyl-1-phenylethane-1,2-diamine] | > 10 | –
34 | CNC[C@@H](Nc1ccnc(-c2cccnc2N)n1)c1cccc(F)c1 [Compound 145, (S)-N1-[2-(2-Amino-pyridin-3-yl)-pyrimidin-4-yl]-1-(3-fluoro-phenyl)-N2-methyl-ethane-1,2-diamine] | > 10 | –
35 | CNC[C@@H](Nc1ccnc(-c2cccnc2N)n1)c1ccccc1 [Compound 146, (S)-N1-[2-(2-Amino-pyridin-3-yl)-pyrimidin-4-yl]-N2-methyl-1-phenyl-ethane-1,2-diamine] | > 10 | –
36 | CNC[C@H](Nc1ccnc(-c2cccnc2N)n1)c1ccccc1 [Compound 147, (R)-N1-[2-(2-Amino-pyridin-3-yl)-pyrimidin-4-yl]-N2-methyl-1-phenyl-ethane-1,2-diamine] | > 10 | –
37 | N#Cc1cncc(-c2nccc(NCc3ccc(F)cc3F)n2)c1 [Compound 180, 5-[4-[(2,4-difluorophenyl)methylamino]pyrimidin-2-yl]pyridine-3-carbonitrile] | – | IC50 (Table 4, read-out: IC50 FAK): 0.1 to 1 µM
38 | CS(=O)(=O)n1cc(Nc2ccnc(-c3cncc(C(F)(F)F)c3)n2)cn1 [Compound 182, N-(1-methylsulfonylpyrazol-4-yl)-2-[5-(trifluoromethyl)-3-pyridyl]pyrimidin-4-amine] | – | IC50 (Table 4, read-out: IC50 FAK): 0.1 to 1 µM
39 | Cc1ccccc1CNc1ccnc(-c2cncc(C(F)(F)F)c2)n1 [Compound 186, (2-Methyl-benzyl)-[2-(5-trifluoromethyl-pyridin-3-yl)-pyrimidin-4-yl]-amine] | – | IC50 (Table 5, read-out: FAK IC50): 0.1 to 1 µM
40 | COc1cncc(-c2nccc(NCCc3ccccc3)n2)c1 [Compound 187, [2-(5-Methoxy-pyridin-3-yl)-pyrimidin-4-yl]-phenethyl-amine] | – | IC50 (Table 5, read-out: FAK IC50): > 10 µM

— patent US9199962B2, “Substituted azaheterocycles for the treatment of cancer” (Merck Patent GmbH, priority 2011, dated 2015)
